In patent US20260184663A1, “INDENE COMPOUNDS, PHARMACEUTICAL COMPOSITIONS THEREOF, AND THEIR THERAPEUTIC APPLICATIONS” (NucMito Pharmaceuticals co. Ltd., priority 2022, published 2026):

Key:
Type in all cases: cell-based
[1] = system: A549 (lung adenocarcinoma); assay: Antiproliferative activity (CCK-8 cell viability), A549; conditions: Homo sapiens, 72 h; for inhibition at 3.3 µM: Compound concentration: 3.3 μM; for inhibition at 3.3 µM / inhibition at 10 µM: read-out: Antiproliferative activity in cancerous cells, A549 (inhibition of cell growth); for inhibition at 10 µM: Compound concentration: 10 μM; for inhibition at 30 µM: Compound concentration: 30 μM, read-out: Antiproliferative activity in cancerous cells, A549
Method in brief: (§1)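 Cells were seeded at 2,000-5,000/well (HeLa in MEM, HepG2 and SW480 in DMEM, A549 in F-12K, all with 10% FBS) and treated with compound at 3.3, 10 or 30 μM for 72 h at 37° C. CCK-8 was added for 4 h, absorbance was read at 450 nm, and viability was expressed relative to DMSO-treated wells.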

HeLa (cervical cancer) = assay: Antiproliferative activity (CCK-8 cell viability), HeLa; conditions: Homo sapiens, 72 h; for inhibition at 3.3 µM: Compound concentration: 3.3 μM; for inhibition at 3.3 µM / inhibition at 10 µM: read-out: Antiproliferative activity in cancerous cells, HELA (inhibition of cell growth); for inhibition at 10 µM: Compound concentration: 10 μM; for inhibition at 30 µM: Compound concentration: 30 μM, read-out: Antiproliferative activity in cancerous cells, HELA
Method in brief: as §1

[2] = system: MDA-MB-231 (breast cancer); assay: Antiproliferative activity (CCK-8 cell viability), MDA-MB-231; conditions: Homo sapiens, 72 h; for inhibition at 3.3 µM: Compound concentration: 3.3 μM; for inhibition at 3.3 µM / inhibition at 10 µM: read-out: Antiproliferative activity in cancerous cells, MDA-MB-231 (inhibition of cell growth); for inhibition at 10 µM: Compound concentration: 10 μM
Method in brief: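 In this CCK-8 viability assay, MDA-MB-231 cells maintained in Dulbecco's modified Eagle's medium containing 10% fetal bovine serum were placed in 96-well plates (2,000-5,000 cells/well) and treated with compound for 72 h at 37° C. A 4 h incubation with 10 μL CCK-8 followed, plates were read at 450 nm, and viability was expressed against DMSO vehicle wells across replicates.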

HepG2 (liver cancer) = assay: Antiproliferative activity (CCK-8 cell viability), HepG2; conditions: Homo sapiens, 72 h; for inhibition at 3.3 µM: Compound concentration: 3.3 μM; for inhibition at 3.3 µM / inhibition at 10 µM: read-out: Antiproliferative activity in cancerous cells, HepG2 (inhibition of cell growth); for inhibition at 10 µM: Compound concentration: 10 μM; for inhibition at 30 µM: Compound concentration: 30 μM, read-out: Antiproliferative activity in cancerous cells, HepG2
Method in brief: as §1

[3] = system: A431 (epidermoid carcinoma); assay: Antiproliferative activity (CCK-8 cell viability), A431; conditions: Homo sapiens, 72 h, read-out: Antiproliferative activity in cancerous cells, A431 (inhibition of cell growth); for inhibition at 3.3 µM: A-431, Compound concentration: 3.3 μM; for inhibition at 10 µM: A-431, Compound concentration: 10 μM
Method in brief: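 Cell viability of compound-treated A431 cells was measured with a Cell Counting Kit-8. Each well received 10 μL of CCK-8 after 72 h of compound exposure, followed by 4 h incubation at 37° C. and a 450 nm plate-reader measurement. Percent viability was calculated relative to DMSO controls across replicates.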

[4] = system: alpha-smooth muscle actin (α-SMA); assay: Inhibition of TGF-β induced expression of alpha-smooth muscle actin (α-SMA) in CFSC cells (western blot); conditions: compound at 10 μM, TGF-β (10 ng/mL), 24 hours, band intensity vs TGF-β only
Method in brief: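 Values are percent reduction of α-SMA band intensity relative to cells given TGF-β alone, quantified by Western blot densitometry with β-actin probed. Compound was applied at 10 μM alongside 10 ng/mL TGF-β to serum-free CFSC cultures for 24 h at 37 °C.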

SW480 (colon cancer) = assay: Antiproliferative activity (CCK-8 cell viability), SW480; conditions: Homo sapiens, 72 h, read-out: Antiproliferative activity in cancerous cells, SW480 (inhibition of cell growth); for inhibition at 3.3 µM: Compound concentration: 3.3 μM; for inhibition at 10 µM: Compound concentration: 10 μM
Method in brief: as §1

[5] = system: B16F10 (malignant melanoma); assay: Antiproliferative activity (CCK-8 cell viability), B16F10; conditions: Mus musculus, 72 h, read-out: Antiproliferative activity in cancerous cells, B16F10 (inhibition of cell growth); for inhibition at 3.3 µM: B16-F10, Compound concentration: 3.3 μM; for inhibition at 10 µM: B16-F10, Compound concentration: 10 μM
Method in brief: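 Attached B16F10 cells in 96-well plates were incubated with compound at 37° C for 72 h, followed by 10 μL CCK-8 reagent per well and a further 4 h incubation. A multi-well plate reader measured absorbance at 450 nm. Percent viability across replicates was calculated against DMSO vehicle-treated cells.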

Structure (SMILES) | inhibition at 3.3 µM [1] [%] | inhibition at 10 µM [1] [%] | inhibition at 30 µM [1] [%] | inhibition at 3.3 µM (HeLa (cervical cancer)) [%] | inhibition at 10 µM (HeLa (cervical cancer)) [%] | inhibition at 30 µM (HeLa (cervical cancer)) [%] | inhibition at 3.3 µM [2] [%] | inhibition at 10 µM [2] [%] | inhibition at 3.3 µM (HepG2 (liver cancer)) [%] | inhibition at 10 µM (HepG2 (liver cancer)) [%] | inhibition at 3.3 µM [3] [%] | inhibition at 10 µM [3] [%] | inhibition at 10 µM [4] [%] | inhibition at 3.3 µM (SW480 (colon cancer)) [%] | inhibition at 10 µM (SW480 (colon cancer)) [%] | inhibition at 3.3 µM [5] [%] | inhibition at 10 µM [5] [%] | inhibition at 30 µM (HepG2 (liver cancer)) [%] | inhibition at 30 µM ([2]; Compound concentration: 30 μM, read-out: Antiproliferative activity in cancerous cells, MDA-MB-231) [%]
CC1=C(CC(=O)O)c2ccc(F)cc2/C1=C\c1ccc(COc2ccccc2)cc1 [B1, (Z)-2-(6-Fluoro-2-methyl-1-(4-(phenoxymethyl)benzylidene)-1H-inden-3-yl)-acetic acid] | < 30 | < 30 | 30 to 50 | < 30 | < 30 | 30 to 50 | < 30 | ≥ 50 | < 30 | ≥ 50 | 30 to 50 | 30 to 50 | < 30 | ≥ 50 | ≥ 50 | ≥ 50 | ≥ 50 | – | –
CC1=C(CC(=O)O)c2cc(F)ccc2/C1=C\c1ccc(COc2ccc(C(F)(F)F)cc2)cc1 [B2, (Z)-2-(5-Fluoro-2-methyl-1-(4-((4-(trifluoromethyl)phenoxy)methyl)-benzylidene)-1H-inden-3-yl)acetic acid] | ≥ 50 | ≥ 50 | – | < 30 | < 30 | 30 to 50 | 30 to 50 | ≥ 50 | 30 to 50 | ≥ 50 | 30 to 50 | ≥ 50 | > 80 | ≥ 50 | ≥ 50 | ≥ 50 | ≥ 50 | – | –
O=C(O)CC1=C/C(=C/c2ccc(COc3ccccc3)cc2)c2ccc(F)cc21 [B3, (Z)-2-(5-Fluoro-1-(4-(phenoxymethyl)benzylidene)-1H-inden-3-yl)acetic acid] | 30 to 50 | ≥ 50 | 30 to 50 | < 30 | < 30 | < 30 | ≥ 50 | ≥ 50 | 30 to 50 | 30 to 50 | < 30 | 30 to 50 | > 80 | < 30 | 30 to 50 | ≥ 50 | ≥ 50 | < 30 | –
CC1=C(CC(=O)O)c2cc(C)ccc2/C1=C\c1ccc(COc2ccccc2)cc1 [B4, (Z)-2-(2,5-Dimethyl-1-(4-(phenoxymethyl)benzylidene)-1H-inden-3-yl)acetic acid] | 30 to 50 | 30 to 50 | 30 to 50 | < 30 | 30 to 50 | 30 to 50 | 30 to 50 | 30 to 50 | 30 to 50 | < 30 | ≥ 50 | < 30 | < 30 | < 30 | 30 to 50 | ≥ 50 | ≥ 50 | < 30 | < 30
CCc1ccc2c(c1)C(CC(=O)O)=C(C)/C2=C/c1ccc(COc2ccccc2)cc1 [B5, (Z)-2-(5-Ethyl-2-methyl-1-(4-(phenoxymethyl)benzylidene)-1H-inden-3-yl)acetic acid] | 30 to 50 | ≥ 50 | – | < 30 | ≥ 50 | – | < 30 | ≥ 50 | ≥ 50 | ≥ 50 | ≥ 50 | ≥ 50 | > 80 | ≥ 50 | ≥ 50 | ≥ 50 | ≥ 50 | – | –
